{"source": "paper PMC10117764", "about": "“The roles of serine hydrolases and serum albumin in alisol B 23-acetate hydrolysis in humans” (Frontiers in Pharmacology, 2023)", "key": {"FXR": {"target": "T1, FXR (Homo sapiens, UniProt Q96RI1)", "T1 construct": "expressed in transfected cells; host or cells: HEK293T", "T1 sequence (Q96RI1 1-486)": "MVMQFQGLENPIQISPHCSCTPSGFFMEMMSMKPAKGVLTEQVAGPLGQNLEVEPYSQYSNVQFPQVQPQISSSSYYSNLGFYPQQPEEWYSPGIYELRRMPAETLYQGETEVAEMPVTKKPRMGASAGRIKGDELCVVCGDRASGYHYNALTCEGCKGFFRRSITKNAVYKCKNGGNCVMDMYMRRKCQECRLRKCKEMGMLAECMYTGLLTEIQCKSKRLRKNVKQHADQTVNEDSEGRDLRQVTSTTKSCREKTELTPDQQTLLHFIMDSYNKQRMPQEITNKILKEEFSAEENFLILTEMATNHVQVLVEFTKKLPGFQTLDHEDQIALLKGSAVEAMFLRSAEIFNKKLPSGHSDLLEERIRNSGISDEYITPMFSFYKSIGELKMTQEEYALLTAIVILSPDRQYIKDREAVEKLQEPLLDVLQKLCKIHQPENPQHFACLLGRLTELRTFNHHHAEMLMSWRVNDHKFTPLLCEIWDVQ", "T1 sequence (P19793 1-462 partner)": "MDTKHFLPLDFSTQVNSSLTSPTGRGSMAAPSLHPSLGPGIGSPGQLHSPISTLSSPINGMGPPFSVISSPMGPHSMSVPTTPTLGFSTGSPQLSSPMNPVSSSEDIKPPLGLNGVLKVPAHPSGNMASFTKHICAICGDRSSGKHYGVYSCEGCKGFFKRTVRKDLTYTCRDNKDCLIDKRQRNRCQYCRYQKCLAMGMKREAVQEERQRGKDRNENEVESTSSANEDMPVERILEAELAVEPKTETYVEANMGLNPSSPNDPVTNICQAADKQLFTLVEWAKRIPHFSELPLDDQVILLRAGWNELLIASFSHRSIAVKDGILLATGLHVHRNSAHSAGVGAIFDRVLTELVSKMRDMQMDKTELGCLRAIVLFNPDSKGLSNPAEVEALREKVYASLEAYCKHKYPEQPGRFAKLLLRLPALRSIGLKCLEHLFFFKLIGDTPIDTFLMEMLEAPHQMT", "test": "FXR transcriptional activation, Dual-Luciferase Reporter Assay in HEK293T cells", "assay_type": "cell-based", "protocol": "The phFXR, phRXR (retinoid X receptor) and FXR-dependent reporter (EcRE-LUC) were expressed and cotransfected with the Gal4 reporter vector MH100 × 4-TK-Luc, then 1 μg of the relevant plasmid was combined with 1 μg of reporter plasmids and 0.1 μg of pREP7 (Renilla Luciferase) reporter, which was used to normalize transfection efficiencies. HEK293T cells were dispensed into 96 well plates using a volume of 100 μL and 1 × 10^5 cells per well."}, "[1]": {"design": "method as in Liu et al. (2022)", "settings": "oral administration of Qingfei Paidu Decoction, ref Liu et al. (2022); cited from earlier work"}, "AB23A hydrolysis in HLMs": {"system": "AB23A hydrolysis in HLMs", "test": "Chemical inhibition assay of AB23A hydrolysis in HLMs", "assay_type": "biochemical, human", "settings": "HLMs 0.1 mg/mL, AB23A 20 μM, 1 h; BNPP 50 μM, LPA 100 μM, GA 100 μM, boceprevir 20 μM, EDTA 20 μM", "protocol": "(§1) The inhibitory effects of a series of selective inhibitors of human hydrolases against AB23A hydrolysis were assessed. The selective inhibitors of human hydrolases including BNPP (50 μM, a specific inactivator of CES), boceprevir (20 μM, a potent inhibitor for CTSA), LPA (100 μM, a selective inhibitor for CES2A), GA (100 μM, a cholinesterase inhibitor), EDTA (20 μM, a selective PONs inhibitor). The incubation system included PBS, inhibitors, HLMs (0.1 mg/mL)/human plasma (25% dilution), and AB23A (20 μM). After reacting for 1 h, ice-cold acetonitrile was used to terminate the reaction. The supernatants by centrifuging were used to quantify the formation rates of AB by LC-UV analysis."}, "AB23A hydrolysis in HIMs": {"system": "AB23A hydrolysis in HIMs", "test": "Chemical inhibition assay of AB23A hydrolysis in HIMs", "assay_type": "biochemical, human", "settings": "BNPP 50 μM, LPA 100 μM"}, "[2]": {"system": "AB23A hydrolysis in human plasma", "test": "Chemical inhibition assay of AB23A hydrolysis in human plasma", "assay_type": "biochemical", "settings": "human plasma 25% dilution, AB23A 20 μM, 1 h; GA 100 μM, boceprevir 20 μM, EDTA 20 μM", "protocol": "as §1"}, "[3]": {"system": "T2, CC(=O)O[C@H](C[C@@H](C)C1=C2C[C@H](O)C3[C@@]4(C)CCC(=O)C(C)(C)C4CC[C@]3(C)[C@@]2(C)CC1)[C@H]1OC1(C)C", "T2 construct": "purchased Sigma-Aldrich Lot#SLCC9268", "test": "Kinetic analysis of AB23A hydrolysis in hSA", "assay_type": "in vitro ADME, human", "settings": "other: hSA", "protocol": "(§2) The enzymatic kinetics of AB23A hydrolysis in different tissue preparations (HLMs, HIMs, human plasma) and human recombinant enzymes (hCES1A, hCES2A, hSA, hBchE) were analyzed. The incubation system (200 μL) consisted of PBS, each tested enzyme, and AB23A (ranging from 0 to 1,000 μM). After incubating for 1 h, the supernatants were then used for LC-UV analysis. The kinetic parameters of AB23A hydrolysis were fitted by the following Michaelis−Menten Eq. 1 ([Zhang et al., 2022]). V=(Vmax×[S])⁄(Km+[S]) (1) Here, K m is the Michaelis constant of AB23A hydrolysis, V max is the maximum velocity of AB23A hydrolysis, V max /K m is used to calculate the intrinsic clearance (CL int )."}, "[4]": {"substrate": "CC(=O)O[C@H](C[C@@H](C)C1=C2C[C@H](O)C3[C@@]4(C)CCC(=O)C(C)(C)C4CC[C@]3(C)[C@@]2(C)CC1)[C@H]1OC1(C)C", "test": "Kinetic analysis of AB23A hydrolysis in hCES2A", "assay_type": "in vitro ADME, human", "settings": "other: hCES2A", "protocol": "as §2"}, "[5]": {"substrate": "CC(=O)O[C@H](C[C@@H](C)C1=C2C[C@H](O)C3[C@@]4(C)CCC(=O)C(C)(C)C4CC[C@]3(C)[C@@]2(C)CC1)[C@H]1OC1(C)C", "test": "Kinetic analysis of AB23A hydrolysis in hCES1A", "assay_type": "in vitro ADME, human", "settings": "other: hCES1A", "protocol": "as §2"}}}
{"molecule": "C[C@H](C[C@H](O)[C@H]1OC1(C)C)C1=C2C[C@H](O)[C@H]3[C@@]4(C)CCC(=O)C(C)(C)[C@@H]4CC[C@]3(C)[C@@]2(C)CC1", "note": "[AB, alisol B]", "values": [{"measurement": "FXR agonist effect (transcriptional activation)", "setting": "FXR; HEK293T cells, 5, 10, 20 μM, 48 h, GW4064 (10 μM) set at 100%", "result": "dose-dependently agonize FXR"}, {"measurement": "FXR activation compared with AB23A", "setting": "FXR; HEK293T cells, low doses (5 and 10 μM)", "result": "slightly more potent than AB23A"}, {"measurement": "Detection in mice plasma and liver", "setting": "[1]", "result": "readily detected"}]}
{"molecule": "O=[N+]([O-])c1ccc(OP(=O)(O)Oc2ccc([N+](=O)[O-])cc2)cc1", "note": "[BNPP, bis(p-nitrophenyl) phosphate]", "values": [{"measurement": "Effect on AB23A hydrolysis in HLMs", "setting": "AB23A hydrolysis in HLMs", "result": "completely blocked"}, {"measurement": "Effect on formation of AB (AB23A hydrolysis) in HIMs", "setting": "AB23A hydrolysis in HIMs", "result": "near-completely inhibited"}]}
{"molecule": "O=C(O)CN(CCN(CC(=O)O)CC(=O)O)CC(=O)O", "note": "[EDTA, Ethylenediaminetetraacetic acid]", "values": [{"measurement": "Effect on formation of AB (AB23A hydrolysis) in human plasma", "setting": "[2]", "result": "negligible effects"}, {"measurement": "Effect on AB23A hydrolysis in HLMs", "setting": "AB23A hydrolysis in HLMs", "result": "negligible effects"}]}
{"molecule": "COc1ccc2c3c1O[C@H]1C[C@@H](O)C=C[C@@]31CCN(C)C2", "note": "[GA, galanthamine]", "values": [{"measurement": "Effect on formation of AB (AB23A hydrolysis) in human plasma", "setting": "[2]", "result": "significantly inhibit"}, {"measurement": "Effect on AB23A hydrolysis in HLMs", "setting": "AB23A hydrolysis in HLMs", "result": "slightly blocked"}]}
{"molecule": "CN(C)C(=O)C(CCN1CCC(O)(c2ccc(Cl)cc2)CC1)(c1ccccc1)c1ccccc1", "note": "[LPA, Loperamide]", "values": [{"measurement": "Effect on AB23A hydrolysis in HLMs", "setting": "AB23A hydrolysis in HLMs", "result": "slightly blocked"}, {"measurement": "Effect on formation of AB (AB23A hydrolysis) in HIMs", "setting": "AB23A hydrolysis in HIMs", "result": "partially inhibit"}]}
{"molecule": "CC(C)(C)NC(=O)N[C@H](C(=O)N1C[C@H]2[C@@H]([C@H]1C(=O)NC(CC1CCC1)C(=O)C(N)=O)C2(C)C)C(C)(C)C", "note": "(stereo partly shown) [boceprevir, Boceprevir]", "values": [{"measurement": "Effect on formation of AB (AB23A hydrolysis) in human plasma", "setting": "[2]", "result": "negligible effects"}, {"measurement": "Effect on AB23A hydrolysis in HLMs", "setting": "AB23A hydrolysis in HLMs", "result": "negligible effects"}]}
{"molecule": "hSA (Homo sapiens)", "values": [{"measurement": "Vmax", "setting": "[3]", "result": 0.0004, "unit": "µmol/min/mg"}, {"measurement": "Vmax/Km", "setting": "[3]", "result": 1.53, "unit": "µL/min/mg"}]}
{"molecule": "hCES2A (Homo sapiens) (protein, 10xHis; made in house; host or cells: HEK293-F cells, pTT5 vector, purified from conditioned medium) QDSASPIRTTHTGQVLGSLVHVKGANAGVQTFLGIPFAKPPLGPLRFAPPEPPESWSGVRDGTTHPAMCLQDLTAVESEFLSQFNMTFPSDSMSEDCLYLSIYTPAHSHEGSNLPVMVWIHGGALVFGMASLYDGSMLAALENVVVVIIQYRLGVLGFFSTGDKHATGNWGYLDQVAALRWVQQNIAHFGGNPDRVTIFGESAGGTSVSSLVVSPISQGLFHGAIMESGVALLPGLIASSADVISTVVANLSACDQVDSEALVGCLRGKSKEEILAINKPFKMIPGVVDGVFLPRHPQELLASADFQPVPSIVGVNNNEFGWLIPKVMRIYDTQKEMDREASQAALQKMLTLLMLPPTFGDLLREEYIGDNGDPQTLQAQFQEMMADSMFVIPALQVAHFQCSRAPVYFYEFQHQPSWLKNIRPPHMKADHGDELPFVFRSFFGGNYIKFTEEEEQLSRKMMKYWANFARNGNPNGEGLPHWPLFDQEEQYLQLNLQPAVGRALKAHRLQFWKKALPQKIQELEEPEERHTEL", "values": [{"measurement": "Vmax", "setting": "[4]", "result": 0.0125, "unit": "µmol/min/mg"}, {"measurement": "Vmax/Km", "setting": "[4]", "result": 212, "unit": "µL/min/mg"}]}
{"molecule": "hCES1A (Homo sapiens) (protein, 10xHis; made in house; host or cells: HEK293-F cells, pTT5 vector, purified from conditioned medium) GHPSSPPVVDTVHGKVLGKFVSLEGFAQPVAIFLGIPFAKPPLGPLRFTPPQPAEPWSFVKNATSYPPMCTQDPKAGQLLSELFTNRKENIPLKLSEDCLYLNIYTPADLTKKNRLPVMVWIHGGGLMVGAASTYDGLALAAHENVVVVTIQYRLGIWGFFSTGDEHSRGNWGHLDQVAALRWVQDNIASFGGNPGSVTIFGESAGGESVSVLVLSPLAKNLFHRAISESGVALTSVLVKKGDVKPLAEQIAITAGCKTTTSAVMVHCLRQKTEEELLETTLKMKFLSLDLQGDPRESQPLLGTVIDGMLLLKTPEELQAERNFHTVPYMVGINKQEFGWLIPMQLMSYPLSEGQLDQKTAMSLLWKSYPLVCIAKELIPEATEKYLGGTDDTVKKKDLFLDLIADVMFGVPSVIVARNHRDAGAPTYMYEFQYRPSFSSDMKPKTVIGDHGDELFSVFGAPFLKEGASEEEIRLSKMVMKFWANFARNGNPNGEGLPHWPEYNQKEGYLQIGANTQAAQKLKDKEVAFWTNLFAKKAVEKPPQTE", "values": [{"measurement": "Vmax", "setting": "[5]", "result": 0.0235, "unit": "µmol/min/mg"}, {"measurement": "Vmax/Km", "setting": "[5]", "result": 123, "unit": "µL/min/mg"}]}
